Reference: article PMC10319809, “Chronic UCN2 treatment desensitizes CRHR2 and improves insulin sensitivity” (Nature Communications, 2023)
Where no end group is shown, it is not given here.

Tests used:
human CRHR2a (Gs) = molecular target: T1, human CRHR2a (Gs) (Homo sapiens, UniProt Q13324); assay: ebBRET effector membrane translocation assay (EMTA), Gs biosensor; format: cell-based; conditions: comparison of concentration response curves; Gs at lower concentration
T1 construct: expressed in transfected cells; host or cells: HEK293 cells (Millipore Sigma), transient PEI co-transfection with biosensor plasmids at Domain Therapeutics
T1 sequence (Q13324 1-411): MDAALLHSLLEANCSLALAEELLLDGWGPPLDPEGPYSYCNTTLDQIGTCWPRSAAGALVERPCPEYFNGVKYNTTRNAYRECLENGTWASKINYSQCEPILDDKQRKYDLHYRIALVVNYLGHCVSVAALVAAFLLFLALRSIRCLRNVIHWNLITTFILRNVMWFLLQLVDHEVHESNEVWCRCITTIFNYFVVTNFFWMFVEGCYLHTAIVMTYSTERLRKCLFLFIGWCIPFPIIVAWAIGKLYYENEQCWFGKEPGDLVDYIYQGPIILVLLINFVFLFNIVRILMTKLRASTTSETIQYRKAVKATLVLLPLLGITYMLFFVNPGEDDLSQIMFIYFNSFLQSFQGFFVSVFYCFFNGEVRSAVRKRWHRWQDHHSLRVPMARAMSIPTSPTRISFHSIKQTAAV
Method: Typically, GPCR desensitization is carried out through the recruitment of β-Arrestins or alternative G-proteins to the receptor. To identify whether these proteins are recruited to CRHR2 in response to UCN2, enhanced bystander bioluminescence resonance energy transfer (ebBRET)-based effector membrane translocation assays (EMTA) were carried out in HEK293 cells[28],[29]. Cells were co-transfected with plasmids expressing unmodified CRHR2a (alpha isoform) and one of various pathway-specific biosensors. […]
Effector membrane translocation biosensor assays (bioSensAll®) were conducted at Domain Therapeutics NA Inc. (Montreal, QC, Canada) and described in cells[28],[29]. […] Briefly, DNA and PEI were diluted separately in 150 mM NaCl, mixed and then incubated for at least 20 min at room temperature (note: salmon sperm DNA (Invitrogen) was used to adjust the total amount of DNA transfected to a final quantity of 1 ug per mL of cell culture to be transfected). During the 20-minute incubation, HEK293 cells were detached, counted and resuspended into cell culture medium to a final density of 350,000 cells per mL. […] Cells were then incubated at room temperature for 10 min and BRET readings subsequently collected with a 0.4 s integration time on a Synergy NEO plate reader (BioTek Instruments, Inc., USA; filters: 400 nm/70 nm, 515 nm/20 nm). […]

[1] = tested on: AKT1S1, IRS1, AKT phosphorylation; assay: Ex vivo soleus muscle insulin signaling (Western blot); parameters: species or system mouse; conditions: 100 nM UCN2 pre-treatment, n = 2
Method: Soleus muscle was removed from fed animals anesthetized by an intraperitoneal injection of pentobarbital (10 mg/100 g body weight). Dissected soleus muscles were suspended at 5 mN of tension in incubation chambers (Model 610/820 M, Danish Myo-Technology, Denmark) containing Krebs-Ringer-Buffer supplemented with 0.1% BSA, 2 mM pyruvate and 8 mM Mannitol. During the entire incubation period the KRB was maintained at 30 °C and oxygenated with 95% O2 and 5% CO2. Following 10 min of pre-incubation muscles were incubated in Krebs buffer +/− 100 nM (−7.0 log[M]) UCN2. At the next time point, 30 min later, muscles were placed in baths containing Krebs buffer +/− 100 nM (−7.0 [M]) UCN2. At the next time point, 15 min later, muscles were placed in baths containing Krebs buffer +/− 100 nM (−7.0 log[M]) UCN2 + /− 60 nM Insulin (Actrapid, Novo Nordisk, Bagsvaerd, Denmark) for 15 min. For the ex vivo glucose uptake studies, 1 mM [^3H]2-deoxyglucose (Perkin-Elmer) and 7 mM [^14C]mannitol (Perkin-Elmer) was also added at this time. Muscles that were in saline in the first bath, saline in the second bath, and saline in the third bath were assigned to the SSS group. Muscles that were in saline in the first bath, saline in the second bath, and UCN2 in the third bath were assigned to the SSU group. […]

## IVLSLDVPIGLLQILLEQARARAAREQATTNARILARVGHC-NH2 (C-terminus assumed) [UCN2, Urocortin 2]
Human CRHR2a (Gs)
  UCN2 concentration for Gs activation versus engagement of Gi and β-Arrestin: more than 10 fold
[1]
  AKT1S1, IRS1 and AKT phosphorylation after UCN2 pre-treatment ex vivo: increased AKT1S1, IRS1, and AKT phosphorylation
